Among the data in PubChem BioAssay (NCI) are GI50 and TGI values, retold here.

Test systems include NCI/ADR-RES ovarian; SN12C renal; RXF 393 renal; OVCAR-8 ovarian; IGROV1 ovarian; SR leukemia; SF-295 CNS; DU-145 prostate; SK-OV-3 ovarian; HCC-2998 colon.
Holding throughout (experiment): DTP human tumour cell line panel, 48 h

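Cultured in 96-well plates, cells were exposed to test compound for 48 hours across five concentrations. The concentration for 50% growth inhibition is given as GI50. TGI is the concentration that stops growth completely.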

One may read the GI50 as the concentration at which growth is held to half of that of the control. Usually TGI stands for the concentration at which net growth stops. Read a low TGI as greater sensitivity of the cells. As for `C=C1C(=O)O[C@H]2[C@H]1CC/C(COC(=O)NCc1c[nH]c3ccccc13)=C\CC[C@@]1(C)O[C@@H]21`, the GI50 was 6.4 µM with NCI/ADR-RES ovarian; 1.77 µM in the experiment on SN12C renal; 1.24 µM with RXF 393 renal; 2.2 µM with OVCAR-8 ovarian; 1.96 µM in the experiment with IGROV1 ovarian; 2.22 µM with SR leukemia. Also, the GI50 with SF-295 CNS was 12.1 µM; with DU-145 prostate it was 2.35 µM; in the experiment with SK-OV-3 ovarian, 13.7 µM; in the experiment on HCC-2998 colon, 6.41 µM. The TGI with NCI/ADR-RES ovarian was 23.1 µM; in the experiment with SN12C renal, 5.47 µM; in the experiment with RXF 393 renal, 2.72 µM; in the experiment with OVCAR-8 ovarian it was 6.99 µM; with IGROV1 ovarian it was 11.6 µM; in the experiment with SR leukemia, 8.35 µM. Moreover, the TGI in the experiment on SF-295 CNS came out at 24.7 µM; in the experiment on DU-145 prostate, 10.7 µM; in the experiment with SK-OV-3 ovarian, 26.6 µM; in the experiment on HCC-2998 colon, 19 µM.

For the molecule `O=C(/C=C/c1ccc(Cl)cc1)c1ccccc(=O)c1O`, the TGI was 2.42 µM in the experiment with NCI/ADR-RES ovarian; 4.58 µM in the experiment on SN12C renal; more than 100 µM in the experiment on RXF 393 renal; more than 100 µM with OVCAR-8 ovarian; 15.8 µM in the experiment with IGROV1 ovarian; more than 100 µM in the experiment on SR leukemia. Further, the TGI with SF-295 CNS was found to be 16.3 µM; with DU-145 prostate it was 19.1 µM; in the experiment with SK-OV-3 ovarian it was 16.6 µM; with HCC-2998 colon, 8.29 µM.

For `COC(=O)c1ccc2c(c1)C(=O)c1c-2n(CCCCl)c(=O)c2cc([N+](=O)[O-])ccc12`, the GI50 is more than 100 µM with NCI/ADR-RES ovarian; more than 100 µM in the experiment with SN12C renal; more than 100 µM in the experiment with RXF 393 renal; more than 100 µM in the experiment with OVCAR-8 ovarian; 34.9 µM in the experiment with IGROV1 ovarian; 4.94 µM with SR leukemia. For the same molecule, the GI50 is 52 µM in the experiment with SF-295 CNS, 37.2 µM with DU-145 prostate, more than 100 µM in the experiment with SK-OV-3 ovarian and more than 100 µM with HCC-2998 colon. The TGI in the experiment on NCI/ADR-RES ovarian, with SN12C renal, in the experiment with RXF 393 renal, in the experiment with OVCAR-8 ovarian, in the experiment on IGROV1 ovarian and with SR leukemia was more than 100 µM each time. The TGI in the experiment with SF-295 CNS, in the experiment on DU-145 prostate, in the experiment on SK-OV-3 ovarian and in the experiment with HCC-2998 colon was more than 100 µM each time.

`COc1cccc(/C=C/C(=O)c2ccc(SC)cc2)c1OC`: the GI50 with NCI/ADR-RES ovarian was 16.2 µM; with SN12C renal, 14.7 µM; in the experiment with RXF 393 renal, 3.9 µM; in the experiment on OVCAR-8 ovarian it was 12.7 µM; in the experiment with SR leukemia, 4.43 µM; with DU-145 prostate, 20.4 µM. For the same molecule, the figures for the GI50 in the experiment on SK-OV-3 ovarian and in the experiment with HCC-2998 colon were 23.5 µM and 16.8 µM, respectively. Further, the TGI with NCI/ADR-RES ovarian amounted to 38.5 µM; with SN12C renal, 29.2 µM; in the experiment with RXF 393 renal, 11.7 µM; with OVCAR-8 ovarian, 25.6 µM; in the experiment with SR leukemia it was 79.5 µM; in the experiment on DU-145 prostate, 40.6 µM. The results for the TGI in the experiment with SK-OV-3 ovarian and with HCC-2998 colon were 40.6 µM and 30.4 µM, respectively.

For the molecule `C[C@H]1/C(=C/C(=O)OCCN(C)C)CC[C@H]2[C@H]1C(=O)C[C@H]1C(C)(C)[C@@H](O)CC[C@]21C`, the TGI in the experiment with NCI/ADR-RES ovarian, with SN12C renal, in the experiment with RXF 393 renal, in the experiment with OVCAR-8 ovarian, in the experiment with IGROV1 ovarian and in the experiment with SR leukemia was more than 100 µM each time. The TGI in the experiment on SF-295 CNS, in the experiment on DU-145 prostate, in the experiment with SK-OV-3 ovarian and in the experiment on HCC-2998 colon was more than 100 µM in each case.

Take `CN(C)CCCN(CCC1CCCCC1)CCC1CCCCC1`: the GI50 in the experiment with NCI/ADR-RES ovarian is 0.683 µM; with SN12C renal it was 9.79 µM; in the experiment with RXF 393 renal, 1.47 µM; in the experiment on OVCAR-8 ovarian it was 3.12 µM; in the experiment on IGROV1 ovarian, 1.91 µM; with SR leukemia, 0.731 µM. The GI50 with SF-295 CNS is 1.95 µM; in the experiment with DU-145 prostate it was 5.56 µM; in the experiment on SK-OV-3 ovarian, 7.68 µM; with HCC-2998 colon, 0.325 µM. Moreover, the TGI was found to be 7 µM in the experiment on NCI/ADR-RES ovarian; 22.9 µM in the experiment with SN12C renal; 4.24 µM in the experiment with RXF 393 renal; 7.12 µM in the experiment on OVCAR-8 ovarian; 4.65 µM in the experiment with IGROV1 ovarian; 3.25 µM in the experiment on SR leukemia. For the same molecule, the TGI came to 4.51 µM in the experiment with SF-295 CNS, 17.7 µM with DU-145 prostate, 21.5 µM in the experiment on SK-OV-3 ovarian and 0.915 µM with HCC-2998 colon.

Turning to `Cc1nc2c(c(N3CCCc4ccccc43)n1)CCC2`, the GI50 with NCI/ADR-RES ovarian was less than 0.01 µM; in the experiment on SN12C renal, 0.0161 µM; with OVCAR-8 ovarian it was 0.0112 µM; with IGROV1 ovarian it was 0.0249 µM; in the experiment on SR leukemia, less than 0.01 µM; with SF-295 CNS it was less than 0.01 µM. The GI50 with DU-145 prostate, in the experiment with SK-OV-3 ovarian and in the experiment on HCC-2998 colon was less than 0.01 µM each time. For the same molecule, the TGI in the experiment with NCI/ADR-RES ovarian is 0.364 µM; in the experiment on SN12C renal, more than 100 µM; in the experiment on OVCAR-8 ovarian it was more than 100 µM; in the experiment on IGROV1 ovarian, more than 100 µM; with SR leukemia, 13.1 µM; in the experiment on SF-295 CNS, more than 100 µM. The concentration for total growth inhibition (TGI) with DU-145 prostate, in the experiment with SK-OV-3 ovarian and with HCC-2998 colon was more than 100 µM each time.

Consider `CC1(C)S[C@@H]2[C@H](N3C(=O)c4ccccc4C3=O)CN2[C@H]1NC(=O)N[C@@H]1N2C[C@@H](N3C(=O)c4ccccc4C3=O)[C@H]2SC1(C)C`, for which the TGI in the experiment with NCI/ADR-RES ovarian is more than 100 µM; in the experiment with SN12C renal it was more than 100 µM; in the experiment with RXF 393 renal, 82.1 µM; in the experiment on OVCAR-8 ovarian it was more than 100 µM; in the experiment with IGROV1 ovarian it was more than 100 µM; in the experiment with SF-295 CNS, more than 100 µM. The TGI with DU-145 prostate, with SK-OV-3 ovarian and in the experiment on HCC-2998 colon was more than 100 µM each time.

Take `CC(=O)Nc1cc2cc(N)ccc2oc1=O`: the TGI in the experiment with NCI/ADR-RES ovarian, in the experiment with SN12C renal, in the experiment with RXF 393 renal, with OVCAR-8 ovarian, in the experiment on IGROV1 ovarian and with SR leukemia was more than 100 µM each time. In addition, the TGI in the experiment on SF-295 CNS, with DU-145 prostate and in the experiment on HCC-2998 colon was more than 100 µM throughout.
